According to ChEMBL document CHEMBL1201862, “PubChem BioAssay data set” (2004):
Activity calls are given as the source filed them.

Key:
[1] = tested on: HEK293; experiment: cells; format: functional, cell-based; settings: Homo sapiens
[2] = tested on: HEK293; experiment: cells; format: functional, cell-based; settings: Homo sapiens; remark: listed apart in the source
[3] = target: Phospholipase A2 (Homo sapiens, UniProt P04054); format: functional;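 further: confirmatory dose-response counterscreen on phospholipase A2, testing hits that came from an ultra-high-throughput screen for ATG4B inhibitors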
Chain of Phospholipase A2 (P04054 whole entry): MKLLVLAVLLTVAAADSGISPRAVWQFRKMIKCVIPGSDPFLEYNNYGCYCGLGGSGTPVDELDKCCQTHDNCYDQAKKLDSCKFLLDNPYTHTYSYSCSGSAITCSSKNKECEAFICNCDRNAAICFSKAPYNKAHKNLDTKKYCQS

[4] = target: Cysteine protease ATG4B (Homo sapiens, UniProt Q9Y4P1); format: functional;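 further: Fluorescence-based dose-response confirmation assay measuring inhibition of ATG4B activity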
Chain of Cysteine protease ATG4B (Q9Y4P1 whole entry): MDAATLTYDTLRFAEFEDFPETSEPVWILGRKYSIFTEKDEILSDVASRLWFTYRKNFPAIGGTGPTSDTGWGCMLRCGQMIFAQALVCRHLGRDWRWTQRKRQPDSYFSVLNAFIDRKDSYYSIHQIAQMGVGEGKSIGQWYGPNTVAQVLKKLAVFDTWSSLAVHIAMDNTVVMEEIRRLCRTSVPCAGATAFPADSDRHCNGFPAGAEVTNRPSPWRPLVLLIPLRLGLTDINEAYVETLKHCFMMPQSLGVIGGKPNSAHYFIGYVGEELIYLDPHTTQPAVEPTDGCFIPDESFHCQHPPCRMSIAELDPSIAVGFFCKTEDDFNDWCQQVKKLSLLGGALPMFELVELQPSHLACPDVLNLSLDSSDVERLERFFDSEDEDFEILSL

[5] = tested on: HEK293; experiment: cells; format: functional, cell-based; settings: Homo sapiens; remark: listed apart in the source
[6] = tested on: HEK293; experiment: NOD2 signaling inhibitors in MDP-stimulated cells, cell-based, uHTS, luminescence (AID 2001); format: functional; settings: Homo sapiens
[7] = target: Nucleotide-binding oligomerization domain-containing protein 2 (Homo sapiens, UniProt Q9HC29); experiment: NOD2 signaling inhibitors, cell-based, luminescence, uHTS, HEK293 (AID 1566); format: functional
Chain of Nucleotide-binding oligomerization domain-containing protein 2 (Q9HC29 whole entry, the tested form may be a part): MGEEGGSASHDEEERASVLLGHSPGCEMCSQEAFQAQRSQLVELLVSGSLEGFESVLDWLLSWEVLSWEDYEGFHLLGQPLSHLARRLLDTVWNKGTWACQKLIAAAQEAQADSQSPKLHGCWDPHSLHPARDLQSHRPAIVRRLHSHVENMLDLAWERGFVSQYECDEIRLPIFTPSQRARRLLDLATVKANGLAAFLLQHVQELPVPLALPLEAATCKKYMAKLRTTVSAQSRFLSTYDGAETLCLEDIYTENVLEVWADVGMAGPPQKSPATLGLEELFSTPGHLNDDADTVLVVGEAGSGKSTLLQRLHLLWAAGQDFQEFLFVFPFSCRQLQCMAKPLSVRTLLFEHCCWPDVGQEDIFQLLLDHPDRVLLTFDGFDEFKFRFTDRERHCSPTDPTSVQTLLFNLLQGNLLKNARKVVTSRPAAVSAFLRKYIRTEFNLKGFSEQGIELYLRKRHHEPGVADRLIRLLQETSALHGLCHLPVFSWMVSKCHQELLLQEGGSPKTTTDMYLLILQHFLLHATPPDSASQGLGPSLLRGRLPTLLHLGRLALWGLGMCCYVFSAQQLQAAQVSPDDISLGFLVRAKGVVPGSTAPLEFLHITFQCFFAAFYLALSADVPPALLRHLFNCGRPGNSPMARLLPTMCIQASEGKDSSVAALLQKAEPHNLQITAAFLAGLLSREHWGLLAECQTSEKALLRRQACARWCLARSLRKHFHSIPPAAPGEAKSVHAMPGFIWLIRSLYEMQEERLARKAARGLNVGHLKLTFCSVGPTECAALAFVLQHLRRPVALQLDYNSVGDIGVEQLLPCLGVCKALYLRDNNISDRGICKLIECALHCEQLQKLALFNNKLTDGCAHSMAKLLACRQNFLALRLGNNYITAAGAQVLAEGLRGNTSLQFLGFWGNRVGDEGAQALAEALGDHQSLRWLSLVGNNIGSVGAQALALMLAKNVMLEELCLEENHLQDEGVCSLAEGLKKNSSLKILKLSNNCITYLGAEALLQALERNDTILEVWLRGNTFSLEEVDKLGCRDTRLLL

[8] = tested on: HEK293; experiment: NOD1 signaling inhibitors, primary screen, cell-based, luminescence, uHTS (AID 1578); format: functional; settings: Homo sapiens
[9] = target: T1, RNA-binding protein pos-1 (Caenorhabditis elegans, UniProt G5EF15); experiment: inhibitors of POS-1/mex-3 RNA binding, dose response, biochemical, fluorescence polarization (AID 1964);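 further: purified POS-1 fused to maltose binding protein made in E. coli; potency of compounds blocking POS-1 binding to fluorescent RNA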
T1 sequence (G5EF15 whole entry): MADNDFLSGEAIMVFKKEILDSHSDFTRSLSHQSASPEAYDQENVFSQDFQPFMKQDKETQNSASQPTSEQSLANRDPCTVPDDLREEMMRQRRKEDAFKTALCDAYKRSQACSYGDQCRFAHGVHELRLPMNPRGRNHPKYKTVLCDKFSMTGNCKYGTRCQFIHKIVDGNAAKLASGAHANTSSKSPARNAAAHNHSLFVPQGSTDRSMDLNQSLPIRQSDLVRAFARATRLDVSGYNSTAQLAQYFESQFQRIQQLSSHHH

[10] = target: UDP-galactopyranose mutase (Mycobacterium tuberculosis, UniProt P9WIQ1); experiment: Inhibitors of Mycobacterium tuberculosis UDP-galactopyranose mutase (UGM) enzyme Measured in Biochemical System Using Plate Reader - 2105-02_Inhibitor_Dose_CherryPick_Activity. [Related pubchem assays (depositor defined):AID504439]
Chain of UDP-galactopyranose mutase (P9WIQ1 whole entry): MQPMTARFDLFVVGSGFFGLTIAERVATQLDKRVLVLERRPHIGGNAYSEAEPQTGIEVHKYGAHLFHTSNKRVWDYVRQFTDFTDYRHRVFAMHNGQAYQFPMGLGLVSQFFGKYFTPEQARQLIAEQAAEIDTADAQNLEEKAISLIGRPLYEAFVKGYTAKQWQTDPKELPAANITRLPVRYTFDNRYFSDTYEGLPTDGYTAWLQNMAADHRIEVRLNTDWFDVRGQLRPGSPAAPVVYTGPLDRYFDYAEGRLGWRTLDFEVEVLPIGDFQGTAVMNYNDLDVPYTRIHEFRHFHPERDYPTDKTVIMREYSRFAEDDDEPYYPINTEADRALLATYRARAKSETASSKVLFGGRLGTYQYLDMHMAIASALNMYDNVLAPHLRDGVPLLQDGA

[11] = target: DNA dC->dU-editing enzyme APOBEC-3A (Homo sapiens, UniProt P31941); experiment: Dose Response confirmation of small molecule APOBEC3A DNA Deaminase Inhibitors via a fluorescence-based single-stranded DNA deaminase assay. [Related pubchem assays (depositor defined):AID493011, AID493024]; format: functional
Chain of DNA dC->dU-editing enzyme APOBEC-3A (P31941 whole entry): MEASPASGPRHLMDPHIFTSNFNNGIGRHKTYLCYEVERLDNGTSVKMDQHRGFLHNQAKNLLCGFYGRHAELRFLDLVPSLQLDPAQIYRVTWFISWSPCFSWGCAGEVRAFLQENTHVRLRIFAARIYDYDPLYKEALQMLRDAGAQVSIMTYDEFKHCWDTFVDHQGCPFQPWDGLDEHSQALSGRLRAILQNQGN

[12] = target: DNA dC->dU-editing enzyme APOBEC-3G (Homo sapiens, UniProt Q9HC16); format: functional;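 further: Dose-response counterscreen measuring inhibition of APOBEC3G DNA deaminase activity, run while confirming APOBEC3A inhibitors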
Chain of DNA dC->dU-editing enzyme APOBEC-3G (Q9HC16 whole entry): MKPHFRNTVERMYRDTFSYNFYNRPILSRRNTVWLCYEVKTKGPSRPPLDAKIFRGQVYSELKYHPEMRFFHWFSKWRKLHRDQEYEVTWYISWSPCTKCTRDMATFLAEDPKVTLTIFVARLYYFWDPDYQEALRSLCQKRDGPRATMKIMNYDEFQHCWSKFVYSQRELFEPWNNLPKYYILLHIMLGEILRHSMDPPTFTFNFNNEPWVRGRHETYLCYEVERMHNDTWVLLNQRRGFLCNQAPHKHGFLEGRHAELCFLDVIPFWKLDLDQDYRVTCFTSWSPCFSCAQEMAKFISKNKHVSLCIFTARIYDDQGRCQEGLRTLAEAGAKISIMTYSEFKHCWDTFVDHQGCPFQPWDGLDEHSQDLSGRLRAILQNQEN

[13] = target: T2, Zinc finger protein mex-5 (Caenorhabditis elegans, UniProt Q9XUB2); experiment: MEX-5/TCR-2 RNA interaction inhibitors, dose response, biochemical, C. elegans, fluorescence polarization (AID 1960)
T2 sequence (Q9XUB2 whole entry): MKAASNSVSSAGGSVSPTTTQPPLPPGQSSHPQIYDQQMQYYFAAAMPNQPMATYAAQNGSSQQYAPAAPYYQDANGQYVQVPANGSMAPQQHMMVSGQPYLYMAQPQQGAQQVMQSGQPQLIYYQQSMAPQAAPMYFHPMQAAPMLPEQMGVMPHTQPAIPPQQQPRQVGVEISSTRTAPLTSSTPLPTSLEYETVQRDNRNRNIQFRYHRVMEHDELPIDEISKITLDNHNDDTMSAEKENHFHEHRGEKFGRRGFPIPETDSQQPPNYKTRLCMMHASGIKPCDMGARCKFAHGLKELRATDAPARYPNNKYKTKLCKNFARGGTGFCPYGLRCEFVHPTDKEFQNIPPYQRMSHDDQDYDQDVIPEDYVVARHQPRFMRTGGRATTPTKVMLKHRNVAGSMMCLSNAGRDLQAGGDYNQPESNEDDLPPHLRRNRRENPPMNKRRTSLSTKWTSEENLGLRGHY

[14] = target: T3, Sentrin-specific protease 8 (Homo sapiens, UniProt Q96LD8); format: functional;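 further: luminescence read-out of SENP8 inhibition, dose-response confirmation following an ultra-high-throughput screen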
T3 sequence (Q96LD8 whole entry): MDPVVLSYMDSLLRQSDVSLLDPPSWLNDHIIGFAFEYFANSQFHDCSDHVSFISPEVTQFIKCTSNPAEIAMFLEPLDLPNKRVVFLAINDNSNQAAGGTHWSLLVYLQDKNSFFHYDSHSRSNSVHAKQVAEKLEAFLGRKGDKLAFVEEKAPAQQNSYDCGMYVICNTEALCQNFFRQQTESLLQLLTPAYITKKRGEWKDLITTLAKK

[15] = target: T4, Sentrin-specific protease 7 (Homo sapiens, UniProt Q9BQF6); format: functional;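 further: Luminescence-based dose-response confirmation of ultra-high-throughput screening hits, measuring inhibition of SENP7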
T4 sequence (Q9BQF6 whole entry): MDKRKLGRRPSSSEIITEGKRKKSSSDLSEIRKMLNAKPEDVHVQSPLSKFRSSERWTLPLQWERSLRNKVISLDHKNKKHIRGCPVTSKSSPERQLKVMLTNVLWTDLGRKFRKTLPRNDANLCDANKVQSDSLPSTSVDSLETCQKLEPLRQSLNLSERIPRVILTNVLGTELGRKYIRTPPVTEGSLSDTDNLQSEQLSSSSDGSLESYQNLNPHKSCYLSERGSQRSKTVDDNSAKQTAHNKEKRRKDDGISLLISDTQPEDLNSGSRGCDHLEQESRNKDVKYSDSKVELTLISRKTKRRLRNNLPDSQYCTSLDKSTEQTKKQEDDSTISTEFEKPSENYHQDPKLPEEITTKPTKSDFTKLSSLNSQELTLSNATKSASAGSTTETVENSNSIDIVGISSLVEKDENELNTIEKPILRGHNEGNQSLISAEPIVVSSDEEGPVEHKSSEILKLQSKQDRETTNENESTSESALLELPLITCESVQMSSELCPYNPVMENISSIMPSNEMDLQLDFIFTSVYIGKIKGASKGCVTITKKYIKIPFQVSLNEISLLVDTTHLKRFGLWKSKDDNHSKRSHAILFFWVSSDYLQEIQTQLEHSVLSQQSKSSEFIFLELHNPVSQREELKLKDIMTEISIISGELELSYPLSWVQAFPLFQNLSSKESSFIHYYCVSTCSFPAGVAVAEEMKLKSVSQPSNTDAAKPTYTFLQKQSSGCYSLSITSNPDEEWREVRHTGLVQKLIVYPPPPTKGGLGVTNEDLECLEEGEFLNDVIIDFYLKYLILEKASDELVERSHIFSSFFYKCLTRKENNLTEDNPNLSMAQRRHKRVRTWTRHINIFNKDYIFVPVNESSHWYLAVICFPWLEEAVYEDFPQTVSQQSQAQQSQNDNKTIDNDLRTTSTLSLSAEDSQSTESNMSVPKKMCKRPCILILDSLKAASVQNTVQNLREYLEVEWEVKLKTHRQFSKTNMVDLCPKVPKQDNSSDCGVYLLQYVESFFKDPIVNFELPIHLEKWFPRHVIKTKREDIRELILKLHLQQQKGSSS

[16] = target: T5, Sentrin-specific protease 6 (Homo sapiens, UniProt Q9GZR1); format: functional;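 further: Luminescence-based dose-response confirmatory assay of SENP6 inhibition, following up an ultra-high-throughput screen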
T5 sequence (Q9GZR1 whole entry): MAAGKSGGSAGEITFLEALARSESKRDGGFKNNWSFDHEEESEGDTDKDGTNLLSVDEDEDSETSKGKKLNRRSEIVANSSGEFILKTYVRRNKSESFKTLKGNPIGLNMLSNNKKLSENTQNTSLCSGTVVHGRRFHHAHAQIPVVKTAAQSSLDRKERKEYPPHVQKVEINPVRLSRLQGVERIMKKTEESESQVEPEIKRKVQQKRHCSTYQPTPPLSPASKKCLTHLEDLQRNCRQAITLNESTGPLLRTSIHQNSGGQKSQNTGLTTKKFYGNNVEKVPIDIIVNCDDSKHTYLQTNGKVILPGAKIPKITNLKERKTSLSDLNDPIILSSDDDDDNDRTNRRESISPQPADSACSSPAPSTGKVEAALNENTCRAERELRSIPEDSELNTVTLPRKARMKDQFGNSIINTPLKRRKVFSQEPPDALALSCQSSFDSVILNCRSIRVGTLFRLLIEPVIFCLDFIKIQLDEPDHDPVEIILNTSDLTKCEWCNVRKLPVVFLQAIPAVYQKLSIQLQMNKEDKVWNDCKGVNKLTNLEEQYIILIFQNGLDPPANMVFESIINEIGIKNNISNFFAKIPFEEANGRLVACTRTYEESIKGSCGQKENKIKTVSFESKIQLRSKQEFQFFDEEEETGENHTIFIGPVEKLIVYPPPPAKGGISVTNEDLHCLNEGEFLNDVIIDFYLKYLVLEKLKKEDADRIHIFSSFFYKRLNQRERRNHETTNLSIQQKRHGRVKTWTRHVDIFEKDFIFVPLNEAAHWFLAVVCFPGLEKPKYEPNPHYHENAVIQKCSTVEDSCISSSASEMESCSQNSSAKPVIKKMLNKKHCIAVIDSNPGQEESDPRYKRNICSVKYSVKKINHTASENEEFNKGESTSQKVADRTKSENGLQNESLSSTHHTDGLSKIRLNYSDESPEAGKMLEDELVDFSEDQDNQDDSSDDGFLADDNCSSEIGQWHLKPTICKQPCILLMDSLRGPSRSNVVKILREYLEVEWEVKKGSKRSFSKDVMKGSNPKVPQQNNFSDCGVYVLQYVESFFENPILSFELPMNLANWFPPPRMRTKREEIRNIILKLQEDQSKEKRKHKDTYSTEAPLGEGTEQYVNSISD

[17] = target: T6, Caspase-3 (Homo sapiens, UniProt P42574); format: functional;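 further: Dose-response selectivity test against caspase-3 for candidate inhibitors of sentrin-specific proteases (SENPs)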
T6 sequence (P42574 whole entry): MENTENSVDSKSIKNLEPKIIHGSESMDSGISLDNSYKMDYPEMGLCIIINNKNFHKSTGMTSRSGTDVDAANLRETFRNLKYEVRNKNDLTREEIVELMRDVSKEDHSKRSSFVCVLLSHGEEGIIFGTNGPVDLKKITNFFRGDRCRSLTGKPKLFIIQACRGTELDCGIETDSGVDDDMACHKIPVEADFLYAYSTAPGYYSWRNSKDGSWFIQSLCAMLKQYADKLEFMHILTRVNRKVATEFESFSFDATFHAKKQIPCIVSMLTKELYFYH

[18] = target: Glucose-6-phosphate 1-dehydrogenase (Homo sapiens, UniProt P11413); experiment: human G6PD enzyme inhibitors, dose response, selectivity assay for P. falciparum G6PD inhibitor project, biochemical, fluorescence (AID 504792); format: functional
Chain of Glucose-6-phosphate 1-dehydrogenase (P11413 whole entry): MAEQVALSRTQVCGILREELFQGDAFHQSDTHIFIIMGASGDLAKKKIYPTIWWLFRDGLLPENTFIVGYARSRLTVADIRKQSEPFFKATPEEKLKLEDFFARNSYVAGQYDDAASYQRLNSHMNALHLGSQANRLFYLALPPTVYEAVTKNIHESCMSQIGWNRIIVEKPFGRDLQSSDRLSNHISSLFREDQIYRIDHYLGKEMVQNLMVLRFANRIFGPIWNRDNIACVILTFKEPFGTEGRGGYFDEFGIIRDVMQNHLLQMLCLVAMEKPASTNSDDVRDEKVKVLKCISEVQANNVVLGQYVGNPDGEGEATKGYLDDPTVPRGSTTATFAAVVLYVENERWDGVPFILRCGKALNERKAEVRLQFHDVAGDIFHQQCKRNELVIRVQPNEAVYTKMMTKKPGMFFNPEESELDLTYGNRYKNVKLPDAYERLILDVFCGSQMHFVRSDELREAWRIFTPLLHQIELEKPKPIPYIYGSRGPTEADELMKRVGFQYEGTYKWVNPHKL

[19] = target: Large T antigen (Simian virus 40, UniProt P03070); format: functional, Betapolyomavirus macacae;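 further: Confirmatory-stage PubChem screen for compounds that inhibit SV40 T antigen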
Chain of Large T antigen (P03070 whole entry): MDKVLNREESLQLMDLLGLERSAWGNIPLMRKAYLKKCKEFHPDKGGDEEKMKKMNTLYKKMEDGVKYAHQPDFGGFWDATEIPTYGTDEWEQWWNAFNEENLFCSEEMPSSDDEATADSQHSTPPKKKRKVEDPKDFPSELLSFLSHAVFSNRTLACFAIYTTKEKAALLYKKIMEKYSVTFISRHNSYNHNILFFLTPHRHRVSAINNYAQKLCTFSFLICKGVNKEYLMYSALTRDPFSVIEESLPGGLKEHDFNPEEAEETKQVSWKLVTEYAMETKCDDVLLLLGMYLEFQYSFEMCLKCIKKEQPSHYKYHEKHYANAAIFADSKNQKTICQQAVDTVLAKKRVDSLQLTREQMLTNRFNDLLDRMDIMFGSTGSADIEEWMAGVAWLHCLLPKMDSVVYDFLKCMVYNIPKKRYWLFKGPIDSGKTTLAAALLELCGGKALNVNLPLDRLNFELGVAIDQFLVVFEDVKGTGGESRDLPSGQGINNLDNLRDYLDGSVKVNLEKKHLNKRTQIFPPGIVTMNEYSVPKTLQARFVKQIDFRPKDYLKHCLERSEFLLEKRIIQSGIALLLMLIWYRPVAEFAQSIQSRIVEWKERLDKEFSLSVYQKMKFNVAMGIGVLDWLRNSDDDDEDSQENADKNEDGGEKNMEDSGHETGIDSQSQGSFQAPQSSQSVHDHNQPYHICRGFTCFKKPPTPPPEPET

[20] = target: T7, Tyrosine-protein phosphatase non-receptor type 22 (Homo sapiens, UniProt Q9Y2R2); format: functional
T7 sequence (Q9Y2R2 whole entry): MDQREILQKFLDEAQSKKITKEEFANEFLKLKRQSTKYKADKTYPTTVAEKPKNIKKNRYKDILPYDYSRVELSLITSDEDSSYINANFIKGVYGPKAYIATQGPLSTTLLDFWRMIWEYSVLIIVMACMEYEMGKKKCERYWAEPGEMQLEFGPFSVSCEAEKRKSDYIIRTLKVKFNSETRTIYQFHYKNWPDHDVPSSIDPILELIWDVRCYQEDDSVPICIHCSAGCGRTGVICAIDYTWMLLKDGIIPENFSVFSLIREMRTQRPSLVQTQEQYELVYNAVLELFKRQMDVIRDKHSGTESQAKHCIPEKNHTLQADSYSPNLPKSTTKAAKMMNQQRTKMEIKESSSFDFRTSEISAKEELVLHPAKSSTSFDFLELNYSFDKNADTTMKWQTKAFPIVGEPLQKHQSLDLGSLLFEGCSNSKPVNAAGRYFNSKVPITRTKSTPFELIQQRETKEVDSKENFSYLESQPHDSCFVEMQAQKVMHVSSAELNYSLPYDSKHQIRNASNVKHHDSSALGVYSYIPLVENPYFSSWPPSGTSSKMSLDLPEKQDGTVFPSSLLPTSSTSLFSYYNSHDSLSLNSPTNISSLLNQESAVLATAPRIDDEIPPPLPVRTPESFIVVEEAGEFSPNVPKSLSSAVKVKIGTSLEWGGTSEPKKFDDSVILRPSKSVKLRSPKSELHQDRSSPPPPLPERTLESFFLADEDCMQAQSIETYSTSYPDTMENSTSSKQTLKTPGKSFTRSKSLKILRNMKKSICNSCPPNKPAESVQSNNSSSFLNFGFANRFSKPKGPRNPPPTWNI

[21] = target: T7, Tyrosine-protein phosphatase non-receptor type 22; format: functional; remark: listed apart in the source
[22] = target: T8, Tyrosine-protein phosphatase non-receptor type 7 (Homo sapiens, UniProt P35236); format: functional
T8 sequence (P35236 whole entry): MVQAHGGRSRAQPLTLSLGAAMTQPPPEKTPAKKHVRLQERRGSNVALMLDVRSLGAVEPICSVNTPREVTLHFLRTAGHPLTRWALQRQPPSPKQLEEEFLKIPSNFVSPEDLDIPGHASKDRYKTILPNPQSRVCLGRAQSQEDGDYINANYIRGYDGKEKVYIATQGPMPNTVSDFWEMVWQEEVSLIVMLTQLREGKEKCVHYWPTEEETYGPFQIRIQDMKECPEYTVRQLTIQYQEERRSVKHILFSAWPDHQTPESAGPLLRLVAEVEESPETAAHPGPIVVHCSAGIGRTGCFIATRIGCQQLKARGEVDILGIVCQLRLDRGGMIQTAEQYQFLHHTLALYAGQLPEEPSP

## CC(=O)Nc1ccc(C(=O)Nc2nc(-c3cc(C)n(Cc4ccccc4)c3C)cs2)cc1
[1]
  IC50: > 20 µM (inactive)
[2]
  IC50: > 20 µM (inactive)
[3]
  IC50: 5.37 µM (active)
[4]
  IC50: 10.2 µM (active)
[5]
  IC50: > 20 µM (inactive)
[6]
  IC50: > 20 µM (inactive)
[7]
  EC50: > 20 µM (inactive)
[8]
  EC50: > 20 µM (inactive)

## NC(=O)C[n+]1cccc2ccccc21
[9]
  EC50: 29.7 µM (active)
[10]
  AC50: 311 µM (active)
[11]
  IC50: 2.69 µM (active)
[12]
  IC50: 2.52 µM (active)
[13]
  EC50: 22.3 µM (active)

## CC1=NN(C(N)=S)C(=O)C1N=Nc1ccc(Cl)cc1 (centres undefined)
[14]
  IC50: 2.58 µM (active)
[15]
  IC50: 2.07 µM (active)
[16]
  IC50: 2.96 µM (active)
[17]
  IC50: 1.59 µM (active)

## c1cncc(CNc2ccc3c(c2)OCO3)c1
[18]
  IC50: > 80 µM (inactive)
[19]
  IC50: 25.4 µM (active)

## CCC1CCCCN1CCCNC(=O)c1ccc(CS(=O)(=O)Cc2ccccc2F)o1 (centres undefined)
[20]
  IC50: > 79.4 µM (inactive)
[21]
  IC50: > 79.4 µM (inactive)
[22]
  IC50: > 79.4 µM (inactive)

## c1csc(-c2csc(-c3cccs3)n2)c1
[14]
  IC50: 28.2 µM (active)
[15]
  IC50: 5.92 µM (active)
[16]
  IC50: 20.1 µM (active)
[17]
  IC50: 25.3 µM (active)

## Cc1cc(C)cc(OCC(=O)N/N=C\c2cn(C)nc2C)c1
[20]
  IC50: > 79.4 µM (inactive)
[21]
  IC50: > 79.4 µM (inactive)
[22]
  IC50: > 79.4 µM (inactive)
